The results in this text go back to PubChem BioAssay (NCI).

Test in all cases: DTP human tumour cell line panel, 48 h
The test system of assay [1] is A498 renal.
The test system of assay [2] is EKVX NSCLC.
In assay [3] the test system is MDA-MB-231 breast.
Assay [4] deals with MDA-MB-435.
Assay [5] concerns MOLT-4 leukemia.
In assay [6] the test system is NCI/ADR-RES ovarian.
The subject of assay [7] is OVCAR-8 ovarian.
The subject of assay [8] is SK-MEL-2 melanoma.
Assay [9] deals with SK-MEL-28 melanoma.
In assay [10] the test system is SW-620 colon.

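Five concentrations, 48 hours, 96-well plates. GI50: concentration for 50% inhibition of growth. TGI is the concentration that stops growth completely.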

Broadly, the GI50 is the concentration that inhibits growth by half. As usually defined, the TGI is the concentration giving total growth inhibition. High values mean less potent growth arrest, low ones more potent growth arrest. Regarding `OC(COc1cccc2ccccc12)CN1CCN(c2ccc(Cl)cc2)CC1` (stereo not given), the GI50 was 21.3 µM in assay [1]; 21.3 µM in [2]; 19.5 µM in [3]; 38.8 µM in [4]; over 100 µM in [5]; 16.4 µM in assay [6]. Besides, the GI50 in [7] was 15.2 µM; in assay [8], 21.7 µM; in assay [9], 26.9 µM; in assay [10], 17.9 µM. Further, the TGI is 92 µM in [1]; over 100 µM in [2]; 69 µM in [3]; over 100 µM in assay [4]; over 100 µM in assay [5]; 61.1 µM in assay [6]. Also, the TGI is 41 µM in assay [7], 60.3 µM in assay [8], 71.6 µM in assay [9] and over 100 µM in assay [10].
`FC(F)(F)c1[nH]ncc1-c1nc2c(N3CCCCC3)cc3[nH]ncc3c2c2c1CCCC2`: the concentration for 50% growth inhibition (GI50) in assay [1] is 0.0566 µM; in assay [2], 0.868 µM; in assay [3] it was 0.806 µM; in [4], 0.741 µM; in [5] it was 0.744 µM; in assay [6], 2.04 µM. Moreover, the GI50 was 0.825 µM in [7], 0.968 µM in assay [8], 0.617 µM in assay [9] and 0.556 µM in assay [10]. Besides, the TGI in assay [1] was 0.196 µM; in assay [2], 2.48 µM; in assay [3], 3.08 µM; in assay [4], 2.19 µM; in [5], 2.78 µM; in assay [6] it was over 50 µM. The TGI was over 50 µM in assay [7], 2.31 µM in assay [8], 1.78 µM in [9] and 2.67 µM in [10].
In the case of `C[C@@H]1[C@H]2[C@H](C=C3[C@@H]4CC[C@H]5Cc6nc7c(nc6C[C@]5(C)[C@H]4C[C@@H](O)[C@@]32C)C[C@@H]2CC[C@H]3C4=C[C@@H]5O[C@@]6(CC[C@](C)(CO)O6)[C@@H](C)[C@@]5(O)[C@@]4(C)[C@H](O)C[C@@H]3[C@@]2(C)C7)O[C@]12CCC(C)(C)O2`, the 50% growth inhibitory concentration (GI50) in assay [1] is 0.236 µM; in assay [2], 0.377 µM; in assay [3], 0.469 µM; in [4], 2.8 µM; in assay [5] it was 0.259 µM; in assay [6], 11 µM. Also, the GI50 in assay [7] is 10.1 µM; in assay [8], 0.9 µM; in assay [9], 0.518 µM; in assay [10], 0.711 µM. The concentration for total growth inhibition (TGI) in assay [1] was 0.543 µM; in [2] it was 14.1 µM; in assay [3], 2.62 µM; in assay [4], 24.3 µM; in assay [5], 0.857 µM; in [6], over 100 µM. The TGI in assay [7] is over 100 µM; in [8], 18 µM; in assay [9] it was 21.3 µM; in [10] it was 7.92 µM.
